These are literature values, as cited in US20040009537A1, “Methods of modulating and of identifying agents that modulate intracellular calcium” (priority 2002, published 2004).

In this series the test system is HeLa cells. As to conditions: HeLa cells treated with histamine; decrease from about 60-400 μM.

On to `NCCc1c[nH]cn1` [histamine], for which the ER free calcium is 1 to 50 µM.
